{"source": "patent US20050050594A1", "about": "“Tryptophan synthase as a site of herbicide action” (priority 1999, published 2005)", "key": {"[1]": {"target": "T1, Salmonella typhimurium tryptophan synthase holoenzyme (α2β2), TSα reaction (Salmonella typhimurium, UniProt P00929)", "T1 construct": "made in house; host or cells: E. coli strain CB149pSTB7", "T1 sequence (P00929 whole entry)": "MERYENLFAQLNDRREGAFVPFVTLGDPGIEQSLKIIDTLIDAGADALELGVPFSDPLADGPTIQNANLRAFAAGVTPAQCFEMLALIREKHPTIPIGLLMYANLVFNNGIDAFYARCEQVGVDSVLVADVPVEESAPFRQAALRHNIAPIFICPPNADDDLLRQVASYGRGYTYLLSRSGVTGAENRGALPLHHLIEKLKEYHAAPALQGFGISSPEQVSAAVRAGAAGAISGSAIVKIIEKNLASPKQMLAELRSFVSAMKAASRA", "T1 sequence (P0A2K1 2-397, further chain)": "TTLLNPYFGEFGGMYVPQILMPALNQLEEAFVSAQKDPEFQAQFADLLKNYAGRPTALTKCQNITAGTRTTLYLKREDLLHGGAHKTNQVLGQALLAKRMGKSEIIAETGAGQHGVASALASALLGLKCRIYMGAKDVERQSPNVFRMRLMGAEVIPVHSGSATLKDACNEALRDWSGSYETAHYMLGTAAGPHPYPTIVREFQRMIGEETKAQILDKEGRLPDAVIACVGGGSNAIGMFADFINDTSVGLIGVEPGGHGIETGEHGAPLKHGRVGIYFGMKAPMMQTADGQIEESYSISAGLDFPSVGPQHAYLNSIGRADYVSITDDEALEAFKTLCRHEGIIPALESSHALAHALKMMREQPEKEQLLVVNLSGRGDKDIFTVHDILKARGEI", "assay": "Inhibition of tryptophan synthase by the TSα reaction, microtiter kinetic coupled enzyme assay", "format": "biochemical", "how_it_was_run": "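S. typhimurium α2β2 holoenzyme (~1.5 e.u.) in 50 mM Tris-Cl pH 7.8 with 60 mM serine, started with 100 μM IGP (1.5-2× Km), 37° C. Glyceraldehyde-3-P formation coupled to yeast GAPDH/1.6 mM NAD+, read at 340 nm. Inhibitor at 100 μM or 1:1 dilutions; some preincubated 24 h before IGP.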"}, "[2]": {"test_system": "a variety of dicotyledonous and monocotyledonous plants", "assay": "Postemergence greenhouse herbicidal test", "format": "in vivo", "details": "Postemergence application", "protocol": "The herbicidal activity of the compounds was tested as described in the U.S. Pat. No. 5,635,449. […] In the tests, seedling plants are grown in jiffy flats for about two weeks. The test compounds are dispersed in 50/50 acetone/water mixtures containing 0.5% TWEEN®20, a polyoxyethylene sorbitan monolaurate surfactant of Atlas Chemical Industries, in sufficient quantities to provide the equivalent of about 1.0 kg to 8.0 kg per hectare of test compound when applied to the plants through a spray nozzle operating at 40 psi for a predetermined time. After spraying, the plants are placed on greenhouse benches and are cared for in the usual manner, commensurate with conventional greenhouse practices. From four to five weeks after treatment, the seedling plants are examined and rate according to the rating system set forth below."}, "[3]": {"test_system": "mustard, hemp sesbania, soybean, lambsquarters, pigweed, bindweed, morningglory, corn, green foxtail, velvetleaf", "assay": "Early injury symptoms and species effects on postemergence treated plants", "format": "in vivo", "details": "post emergence, 4 or 8 kg/ha; for Symptoms 6 DAT: 6 days after application", "description": "Herbicidal compounds of the invention were examined for their herbicidal effects by observing symptoms on postemergence treated plants.\nEarly injury symptoms caused by the TS-inhibiting herbicides of the invention are represented in Table 13. Symptoms and species effects are represented through the herbicidal activity {4-[(o-hydroxyphenyl)thio]butyl}-phosphonic acid, applied at 4 or 8 kg/ha."}}, "data": [{"smiles": "O=P(O)(O)CCCCSc1ccccc1O", "note": "[Compound 22, {4-[(o-hydroxyphenyl)thio]butyl}-phosphonic acid]", "values": [{"measurement": "IC50", "setting": "[1]; I50 TS, TSα reaction of Salmonella holoenzyme", "result": 130, "unit": "nM"}, {"measurement": "IC50", "setting": "[1]; TSα activity (Salmonella enzyme) I50", "result": 130, "unit": "nM"}, {"measurement": "Herbicidal Activity", "setting": "[2]", "result": "+++ (+++ = 80-100% injury to two species)"}, {"measurement": "Symptoms 6 DAT", "setting": "[3]; height reduction", "result": "height reduction: lambs quarter,"}, {"measurement": "Symptoms 6 DAT", "setting": "[3]; increased branching", "result": "increased branching: soybean"}, {"measurement": "Symptoms 6 DAT", "setting": "[3]; leaf mottling", "result": "leaf mottling: mustard, soybean,"}, {"measurement": "Symptoms 6 DAT", "setting": "[3]; leaf yellowing", "result": "leaf yellowing: mustard, hemp"}, {"measurement": "Symptoms 6 DAT", "setting": "[3]; shoot tip yellowing", "result": "shoot tip yellowing: hemp sesbania"}, {"measurement": "Symptoms 6 DAT", "setting": "[3]; tip necrosis", "result": "tip necrosis: hemp sesbania"}, {"measurement": "Species effects, 13 DAT: bindweed", "setting": "[3]; 13 days after application", "result": "bindweed: mottling, some necrosis,"}, {"measurement": "Species effects, 13 DAT: corn", "setting": "[3]; 13 days after application", "result": "corn: unaffected"}, {"measurement": "Species effects, 13 DAT: green foxtail", "setting": "[3]; 13 days after application", "result": "green foxtail: stunted, yellowing, red"}, {"measurement": "Species effects, 13 DAT: hemp sesbania", "setting": "[3]; 13 days after application", "result": "hemp sesbania: no growth between 6"}, {"measurement": "Species effects, 13 DAT: lambsquarters height reduction", "setting": "[3]; 13 days after application", "result": "lambsquarters: 40% height reduction,"}, {"measurement": "Species effects, 13 DAT: pigweed height reduction", "setting": "[3]; 13 days after application", "result": "pigweed: 25% height reduction"}, {"measurement": "Species effects, 13 DAT: soybean", "setting": "[3]; 13 days after application", "result": "soybean: shoot nearly dead except"}, {"measurement": "Species effects, 13 DAT: velvetleaf height reduction", "setting": "[3]; 13 days after application", "result": "velvetleaf: 50% height reduction"}]}]}
